In US10669267B2, “Substituted N-[2-(4-phenoxypiperidin-1-yl)-2-(1,3-thiazol-5-yl)ethyl]benzamide and N-[2-(4-benzyloxypiperidin-1-yl)-2-(1,3-thiazol-5-yl)ethyl]benzamide derivatives P2X7 receptor antagonists” (Axxam S.P.A., priority 2016, dated 2020) one finds IC50 data, which are given here for 24 compounds.

For one assay, the target named is rat P2X7R (Rattus norvegicus (Rat), UniProt Q64663). The assay is described as follows: rat P2X7 Ca2+ influx, Screen Quest Fluo-8 No Wash Calcium Assay Kit (FLIPR TETRA). Format: cell-based. Conditions: Table 4; HEK-293 cells stably transfected with rat P2X7R, BzATP stimulation; read-out: rP2X7 (IC50; nM). On the procedure: Ca^2+ influx was measured in HEK-293 cells stably transfected with the receptor using Screen Quest™ Fluo-8 No Wash Calcium Assay Kit (AAt Bioquest®). Briefly, once inside the cells, the lipophilic blocking groups of Fluo-8 are cleaved by non-specific cell esterases, resulting in a negatively-charged fluorescent-dye that stays inside cells. Its fluorescence increases upon binding to calcium. When HEK-293/P2X7 cells were stimulated with BzATP, Ca^2+ entered the cells and the fluorescence of Fluo-8 NW increaseed.
Sequence of rat P2X7R (Q64663 whole entry): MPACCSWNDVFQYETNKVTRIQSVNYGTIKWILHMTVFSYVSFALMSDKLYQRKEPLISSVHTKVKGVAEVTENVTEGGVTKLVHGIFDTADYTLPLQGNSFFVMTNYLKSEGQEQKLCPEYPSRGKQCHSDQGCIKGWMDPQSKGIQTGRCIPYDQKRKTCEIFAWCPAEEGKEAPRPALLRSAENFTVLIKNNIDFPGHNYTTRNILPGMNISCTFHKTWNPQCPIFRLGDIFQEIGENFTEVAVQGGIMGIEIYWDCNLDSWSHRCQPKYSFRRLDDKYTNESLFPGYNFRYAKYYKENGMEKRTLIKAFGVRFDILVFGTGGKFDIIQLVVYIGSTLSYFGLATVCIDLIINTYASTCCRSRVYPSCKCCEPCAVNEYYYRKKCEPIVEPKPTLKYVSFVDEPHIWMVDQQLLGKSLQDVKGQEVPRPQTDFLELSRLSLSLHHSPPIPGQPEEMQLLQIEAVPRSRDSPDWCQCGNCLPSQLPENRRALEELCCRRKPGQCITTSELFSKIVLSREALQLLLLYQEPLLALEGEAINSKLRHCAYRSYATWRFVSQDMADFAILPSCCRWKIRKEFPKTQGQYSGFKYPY
To routinely test the compounds, HEK-293 cells stably transfected with rat P2X7R were seeded overnight in growth medium at 10000, 15000 or 20000 cells/well in 384-well plate, according to the level of response after thawing. 24 hours later, the medium was removed and the cells were pre-loaded at RT for 1 hour with 20 μL/w of Fluo-8 NW prepared in Tyrode 0.3 mM Ca^2+/Mg^2+-free.
Compounds were tested at […] according to the following method: • first injection at […] of 10 μL of 3× test compound (in Tyrode's buffer 0.3 mM Ca^2+/Mg^2+-free+DMSO 0.5% final concentration) • 5′ incubation • second injection at […] of 15 µL of 3× BzATP at ˜ECK) (in Tyrode's buffer 0.3 mM Ca^2+/Mg^2+-free+BSA 0.0003% final concentration) • Fluorescence recording for 3′
Between one plate and the following, tips were extensively washed with water, then with 100% DMSO and finally with water to avoid carry-over inside the tips.
The effect of the test compounds was measured as percent inhibition vs a reference antagonist and IC50 values were calculated accordingly.

Another assay addresses human P2X7 channel (Homo sapiens (Human), UniProt Q99572). The assay is described as follows: human P2X7 channel assay by automated patch-clamp (QPatch16X), BzATP-evoked current. Format: cell-based. Conditions: HEK-293 cells expressing P2X7, whole-cell voltage clamp, 100 microM BzATP, holding -80 mV; read-out: hP2X7 (IC50; nM). Here is the method: In order to directly monitor the block of P2X7 channel, an electrophysiological assay was developed and implemented on the QPatch16X automated electrophysiology instrument.
HEK-293 cells expressing the P2X7 channels were cultured in modified EMEM.
72 hours before experiment, 5 million cells were seeded onto T225 flasks. Just before the experiment cells were washed twice, detached from the flask with trypsin-EDTA, re-suspended in the suspension solution and placed on the QPatch 16x.
The compounds (20 mM in a 100% DMSO) stored at −20° C. were prepared the day of the experiment (a first dilution 1:20 in 100% DMSO to prepare a 1 mM stock solution, then a 1 microM solution in external solution+a serial dilution 1:10).
The standard whole-cell voltage clamp experiments were performed at room temperature. For these experiments the multihole technology was used and the data were sampled at 2 KHz.
After establishment of the seal and the passage in the whole cell configuration, the cells were held at −80 mV. The P2XR7 current was evoked by applying 100 microM of BzATP alone (4 times) and then in the presence increasing concentrations of the compound under investigation (1, 10, 100 and 1000 nM).
The pre-incubation periods 5 to 8 contain increasing concentrations of the compound of interest (1, 10, 100 and 1000 nM), as illustrated in FIGURE.
The maximal inward current evoked by BzATP in absence or presence of increasing concentrations of the compounds under investigation was measured and normalized.
Y: normalized response, 100% down to 0%, decreasing as X increases.
LogIC50: same log units as X
HillSlope: slope factor or HS, unitless

Structures are written as SMILES.

Sequence of human P2X7 channel (Q99572 whole entry): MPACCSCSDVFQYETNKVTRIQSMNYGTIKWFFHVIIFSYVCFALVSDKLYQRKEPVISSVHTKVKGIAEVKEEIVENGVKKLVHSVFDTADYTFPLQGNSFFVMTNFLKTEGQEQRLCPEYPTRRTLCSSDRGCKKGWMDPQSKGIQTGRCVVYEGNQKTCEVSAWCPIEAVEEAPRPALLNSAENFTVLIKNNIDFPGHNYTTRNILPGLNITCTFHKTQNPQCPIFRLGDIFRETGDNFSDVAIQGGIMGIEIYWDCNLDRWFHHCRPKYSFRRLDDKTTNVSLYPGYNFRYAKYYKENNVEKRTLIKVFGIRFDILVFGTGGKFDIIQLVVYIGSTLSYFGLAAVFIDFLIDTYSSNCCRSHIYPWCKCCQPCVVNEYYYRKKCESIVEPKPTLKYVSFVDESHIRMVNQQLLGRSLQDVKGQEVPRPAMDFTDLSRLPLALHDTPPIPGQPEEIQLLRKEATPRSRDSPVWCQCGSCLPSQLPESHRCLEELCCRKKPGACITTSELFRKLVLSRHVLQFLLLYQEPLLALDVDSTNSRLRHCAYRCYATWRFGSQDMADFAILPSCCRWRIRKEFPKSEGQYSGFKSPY

Take `Cc1ncsc1C(CNC(=O)c1c(F)cccc1Cl)N1CCC(OCc2ccc(F)cc2)CC1` (centres unmarked) [Compound 1, 2-chloro-6-fluoro-N-(2-{4-[(4-fluorophenyl)methoxy]piperidin-1-yl)-2-(4-methyl-1,3-thiazol-5-yl}ethyl)benzamide]: the IC50 at rat P2X7R was determined as 1040 nM; at human P2X7 channel, 45 nM.
Regarding `Cc1ncsc1C(CNC(=O)c1c(F)cccc1Cl)N1CCC(OCc2ccc(Cl)cc2)CC1` (centres unmarked) [Compound 2, 2-chloro-N-(2-{4-[(4-chlorophenyl)methoxy]piperidin-1-yl}-2-(4-methyl-1,3-thiazol-5-yl)ethyl)-6-fluorobenzamide], the IC50 at rat P2X7R was 971 nM.
In the case of `Cc1ncsc1C(CNC(=O)c1c(F)cccc1Cl)N1CCC(OCc2cccc(F)c2)CC1` (centres unmarked) [Compound 3, 2-chloro-6-fluoro-N-(2-{4-[(3-fluorophenyl)methoxy]piperidin-1-yl}-2-(4-methyl-1,3-thiazol-5-yl)ethyl)benzamide], the results for the IC50 on rat P2X7R and at human P2X7 channel were 373 nM and 5.95 nM, respectively.
The matching figures for `Cc1ncsc1C(CNC(=O)c1c(F)cccc1Cl)N1CCC(OCc2ccccc2F)CC1` (centres unmarked) [Compound 4, 2-chloro-6-fluoro-N-(2-{4-[(2-fluorophenyl)methoxy]piperidin-1-yl}-2-(4-methyl-1,3-thiazol-5-yl)ethyl)benzamide]: 953 nM and 28.1 nM.
Consider `Cc1ncsc1C(CNC(=O)c1c(F)cccc1Cl)N1CCC(OCc2cc(F)cc(F)c2)CC1` (centres unmarked) [Compound 5, 2-chloro-N-(2-{4-[(3,5-difluorophenyl)methoxy]piperidin-1-yl}-2-(4-methyl-1,3-thiazol-5-yl)ethyl)-6-fluorobenzamide], for which the results for the IC50 at rat P2X7R and at human P2X7 channel were 506 nM and 35.1 nM, respectively.
Consider `Cc1ncsc1C(CNC(=O)c1c(F)cccc1Cl)N1CCC(OCc2ccc(F)c(F)c2)CC1` (centres unmarked) [Compound 6, 2-chloro-N-(2-{4-[(3,4-difluorophenyl)methoxy]piperidin-1-yl}-2-(4-methyl-1,3-thiazol-5-yl)ethyl)-6-fluorobenzamide], for which the IC50 on rat P2X7R turned out to be 1160 nM.
For `Cc1ncsc1C(CNC(=O)c1c(F)cccc1Cl)N1CCC(Oc2ccc(F)cc2)CC1` (centres unmarked) [Compound 7, 2-chloro-6-fluoro-N-{2-[4-(4-fluorophenoxy)piperidin-1-yl]-2-(4-methyl-1,3-thiazol-5-yl)ethyl}benzamide], the IC50 at rat P2X7R came out at 709 nM; at human P2X7 channel, 51.5 nM.
As for `Cc1ncsc1C(CNC(=O)c1c(F)cccc1Cl)N1CCC(Oc2ccc(Cl)cc2)CC1` (centres unmarked) [Compound 8, 2-chloro-N-{2-[4-(4-chlorophenoxy)piperidin-1-yl]-2-(4-methyl-1,3-thiazol-5-yl)ethyl}-6-fluorobenzamide], at rat P2X7R, the IC50 came out at 1310 nM.
On to `Cc1ncsc1C(CNC(=O)c1c(F)cccc1Cl)N1CCC(Oc2cccc(F)c2)CC1` (centres unmarked) [Compound 9, 2-chloro-6-fluoro-N-{2-[4-(3-fluorophenoxy)piperidin-1-yl]-2-(4-methyl-1,3-thiazol-5-yl)ethyl}benzamide], for which the IC50 at rat P2X7R was 402 nM; at human P2X7 channel, 23.6 nM.
The matching figures for `Cc1ncsc1C(CNC(=O)c1c(F)cccc1Cl)N1CCC(Oc2ccccc2F)CC1` (centres unmarked) [Compound 10, 2-chloro-6-fluoro-N-{2-[4-(2-fluorophenoxy)piperidin-1-yl]-2-(4-methyl-1,3-thiazol-5-yl)ethyl}benzamide]: 583 nM and 42.9 nM.
Turning to `Cc1ncsc1C(CNC(=O)c1c(F)cccc1Cl)N1CCC(Oc2ccc(F)c(F)c2)CC1` (centres unmarked) [Compound 12, 2-chloro-N-{2-[4-(3,4-difluorophenoxy)piperidin-1-yl]-2-(4-methyl-1,3-thiazol-5-yl)ethyl}-6-fluorobenzamide], the IC50 stood at 380 nM on rat P2X7R and 25.8 nM at human P2X7 channel.
Take `Cc1ncsc1C(CNC(=O)c1cccc2ncccc12)N1CCC(OCc2ccc(Cl)cc2)CC1` (centres unmarked) [Compound 14, N-(2-{4-[(4-chlorophenyl)methoxy]piperidin-1-yl}-2-(4-methyl-1,3-thiazol-5-yl)ethyl)quinoline-5-carboxamide]: the IC50 at rat P2X7R was found to be 1120 nM.
The same measure, in the same setting: as for `Cc1ncsc1C(CNC(=O)c1cccc2ncccc12)N1CCC(OCc2ccccc2F)CC1` (centres unmarked) [Compound 16, N-(2-{4-[(2-fluorophenyl)methoxy]piperidin-1-yl}-2-(4-methyl-1,3-thiazol-5-yl)ethyl)quinoline-5-carboxamide], the figure is 762 nM; as for `Cc1ncsc1C(CNC(=O)c1cccc2ncccc12)N1CCC(Oc2ccc(Cl)cc2)CC1` (centres unmarked) [Compound 20, N-{2-[4-(4-chlorophenoxy)piperidin-1-yl]-2-(4-methyl-1,3-thiazol-5-yl)ethyl}quinoline-5-carboxamide], 808 nM; as for `Cc1ncsc1C(CNC(=O)c1cccc2ncccc12)N1CCC(Oc2cc(F)cc(F)c2)CC1` (centres unmarked) [Compound 23, N-{2-[4-(3,5-difluorophenoxy)piperidin-1-yl]-2-(4-methyl-1,3-thiazol-5-yl)ethyl}quinoline-5-carboxamide], 631 nM.
Same read-out and setting: as for `O=C(NCC(c1scnc1C(F)F)N1CCC(OCc2ccccc2F)CC1)c1c(F)cccc1Cl` (centres unmarked) [Compound 25, 2-chloro-N-{2-[4-(difluoromethyl)-1,3-thiazol-5-yl]-2-{4-[(2-fluorophenyl)methoxy]piperidin-1-yl}ethyl}-6-fluorobenzamide], the figure is 252 nM; as for `O=C(NCC(c1scnc1C(F)F)N1CCC(OCc2cc(F)cc(F)c2)CC1)c1c(F)cccc1Cl` (centres unmarked) [Compound 26, 2-chloro-N-{2-[4-(difluoromethyl)-1,3-thiazol-5-yl]-2-{4-[(3,5-difluorophenyl)methoxy]piperidin-1-yl}ethyl}-6-fluorobenzamide], 578 nM.
The same measure, in the same setting: under `O=C(NCC(c1scnc1C(F)F)N1CCC(OCc2ccc(F)c(F)c2)CC1)c1c(F)cccc1Cl` (centres unmarked) [Compound 27, 2-chloro-N-{2[4-(difluoromethyl)-1,3-thiazol-5-yl]-2-{4-[(3,4-difluorophenyl)methoxy]piperidin-1-yl}ethyl}-6-fluorobenzamide] stands 1210 nM.
As to `O=C(NCC(c1scnc1C(F)F)N1CCC(Oc2ccc(Cl)cc2)CC1)c1c(F)cccc1Cl` (centres unmarked) [Compound 28, 2-chloro-N-{2-[4-(4-chlorophenoxy)piperidin-1-yl]-2-[4-(difluoromethyl)-1,3-thiazol-5-yl]ethyl}-6-fluorobenzamide], at rat P2X7R, the IC50 came to 2020 nM.
The same measure, in the same setting: as for `O=C(NCC(c1scnc1C(F)F)N1CCC(Oc2cc(F)cc(F)c2)CC1)c1c(F)cccc1Cl` (centres unmarked) [Compound 31, 2-chloro-N-{2-[4-(difluoromethyl)-1,3-thiazol-5-yl]-2-[4-(3,5-difluorophenoxy)piperidin-1-yl]ethyl}-6-fluorobenzamide], the figure is 458 nM; as for `O=C(NCC(c1scnc1C(F)F)N1CCC(OCc2ccccc2F)CC1)c1cccc2ncccc12` (centres unmarked) [Compound 32, N-{2-[4-(difluoromethyl)-1,3-thiazol-5-yl]-2-{4-[(2-fluorophenyl)methoxy]piperidin-1-yl}ethyl}quinoline-5-carboxamide], 251 nM; as for `O=C(NCC(c1scnc1C(F)F)N1CCC(Oc2ccc(Cl)cc2)CC1)c1cccc2ncccc12` (centres unmarked) [Compound 35, N-{2-[4-(4-chlorophenoxy)piperidin-1-yl]-2-[4-(difluoromethyl)-1,3-thiazol-5-yl]ethyl}quinoline-5-carboxamide], 323 nM.
Still for that read-out and setting: under `O=C(NCC(c1scnc1C(F)F)N1CCC(Oc2cccc(F)c2)CC1)c1cccc2ncccc12` (centres unmarked) [Compound 36, N-{2-[4-(difluoromethyl)-1,3-thiazol-5-yl]-2-[4-(3-fluorophenoxy)piperidin-1-yl]ethyl}quinoline-5-carboxamide] stands 295 nM; under `O=C(NCC(c1scnc1C(F)F)N1CCC(Oc2cc(F)cc(F)c2)CC1)c1cccc2ncccc12` (centres unmarked) [Compound 38, N-{2-[4-(difluoromethyl)-1,3-thiazol-5-yl]-2-[4-(3,5-difluorophenoxy)piperidin-1-yl]ethyl}quinoline-5-carboxamide], 216 nM.
